Source: PMC13385394, “Cryo-EM Structure of the TRPC1/5 Heteromer Enables Design of Antidepressant and Anxiolytic Drug with Reduced Side Effects” (Nature Communications, 2026)

Legend:
TRPC1/5 = target: T1, TRPC1/5 (Homo sapiens, UniProt P48995+Q9UL62); experiment: Calcium flux assay (Calcium 5 kit, EA 100 nM), hTRPC1 + hTRPC5 in HEK293T cells; format: cell-based; conditions: calcium flux screening, 10 μM
T1 construct: Full-length, non-tagged hTRPC1 and hTRPC5 constructs are used for calcium flux assays; expressed in transfected cells; host or cells: HEK293T
T1 sequence (P48995 whole entry): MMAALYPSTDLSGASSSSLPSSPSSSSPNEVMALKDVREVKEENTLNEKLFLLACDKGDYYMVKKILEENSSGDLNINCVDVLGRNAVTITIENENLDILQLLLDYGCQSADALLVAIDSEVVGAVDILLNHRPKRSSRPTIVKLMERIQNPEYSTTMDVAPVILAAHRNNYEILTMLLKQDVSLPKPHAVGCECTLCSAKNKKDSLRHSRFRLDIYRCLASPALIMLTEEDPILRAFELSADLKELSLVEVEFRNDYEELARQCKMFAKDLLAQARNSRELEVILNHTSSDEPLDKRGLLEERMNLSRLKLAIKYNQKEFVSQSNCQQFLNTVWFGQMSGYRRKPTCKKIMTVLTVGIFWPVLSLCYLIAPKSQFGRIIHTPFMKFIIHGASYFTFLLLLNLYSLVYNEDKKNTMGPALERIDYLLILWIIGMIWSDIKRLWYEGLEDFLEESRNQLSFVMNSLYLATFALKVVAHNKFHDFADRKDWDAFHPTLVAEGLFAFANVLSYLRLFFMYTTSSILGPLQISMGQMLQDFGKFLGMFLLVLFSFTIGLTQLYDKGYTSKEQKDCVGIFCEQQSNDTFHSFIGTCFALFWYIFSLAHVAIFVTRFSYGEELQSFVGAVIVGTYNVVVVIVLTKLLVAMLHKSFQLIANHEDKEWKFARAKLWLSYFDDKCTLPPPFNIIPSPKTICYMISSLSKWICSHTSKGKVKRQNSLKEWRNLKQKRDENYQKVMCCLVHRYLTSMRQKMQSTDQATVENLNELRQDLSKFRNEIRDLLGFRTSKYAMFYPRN
T1 sequence (Q9UL62 whole entry): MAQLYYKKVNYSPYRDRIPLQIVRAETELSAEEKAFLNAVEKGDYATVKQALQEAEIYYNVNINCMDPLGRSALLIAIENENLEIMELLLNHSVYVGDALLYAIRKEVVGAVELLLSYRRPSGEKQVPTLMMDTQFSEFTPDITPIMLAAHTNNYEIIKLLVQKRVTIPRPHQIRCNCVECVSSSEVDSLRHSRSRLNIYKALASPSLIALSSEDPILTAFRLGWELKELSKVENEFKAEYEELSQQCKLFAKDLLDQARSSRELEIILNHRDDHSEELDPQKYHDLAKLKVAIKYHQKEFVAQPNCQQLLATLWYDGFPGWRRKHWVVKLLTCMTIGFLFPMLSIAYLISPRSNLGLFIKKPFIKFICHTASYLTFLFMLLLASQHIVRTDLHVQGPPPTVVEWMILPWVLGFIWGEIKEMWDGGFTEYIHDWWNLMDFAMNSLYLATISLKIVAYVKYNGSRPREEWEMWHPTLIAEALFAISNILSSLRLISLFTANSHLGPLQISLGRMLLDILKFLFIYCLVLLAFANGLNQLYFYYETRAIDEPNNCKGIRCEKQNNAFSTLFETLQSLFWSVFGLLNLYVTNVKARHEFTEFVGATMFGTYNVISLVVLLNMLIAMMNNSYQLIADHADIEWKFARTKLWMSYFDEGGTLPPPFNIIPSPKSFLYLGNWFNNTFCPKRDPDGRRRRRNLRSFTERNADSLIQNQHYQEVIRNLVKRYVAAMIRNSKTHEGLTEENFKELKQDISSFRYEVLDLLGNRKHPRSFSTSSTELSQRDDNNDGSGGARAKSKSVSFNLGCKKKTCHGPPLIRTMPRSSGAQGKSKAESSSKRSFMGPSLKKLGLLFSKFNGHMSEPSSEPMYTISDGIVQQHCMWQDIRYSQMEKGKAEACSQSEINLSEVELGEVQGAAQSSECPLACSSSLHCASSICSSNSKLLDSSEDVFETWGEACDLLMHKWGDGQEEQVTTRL
Method: Full-length, non-tagged hTRPC1 and hTRPC5 constructs are used for calcium flux assays. hTRPC5 is transfected alone or co-transfected with hTRPC1 into HEK293T cells (70–80% confluency) using PEI as the transfection reagent.
The culture medium is removed, and 100 µL of loading buffer (Calcium 5 Assay Kit) is added to each well, followed by a 1-h incubation at 37 °C in 5% CO2. Five minutes before measurement, molecules are added to each well at a final concentration of 10 µM under light-sensitive conditions.

TRPC4 homomer = target: T2, TRPC4 homomer (Homo sapiens, UniProt Q9UBN4); experiment: Whole-cell patch-clamp, inhibition of TRPC4 homomer; format: cell-based; conditions: read-out: IC50, TRPC4 homomers
T2 construct: expressed in transfected cells
T2 sequence (Q9UBN4 1-977): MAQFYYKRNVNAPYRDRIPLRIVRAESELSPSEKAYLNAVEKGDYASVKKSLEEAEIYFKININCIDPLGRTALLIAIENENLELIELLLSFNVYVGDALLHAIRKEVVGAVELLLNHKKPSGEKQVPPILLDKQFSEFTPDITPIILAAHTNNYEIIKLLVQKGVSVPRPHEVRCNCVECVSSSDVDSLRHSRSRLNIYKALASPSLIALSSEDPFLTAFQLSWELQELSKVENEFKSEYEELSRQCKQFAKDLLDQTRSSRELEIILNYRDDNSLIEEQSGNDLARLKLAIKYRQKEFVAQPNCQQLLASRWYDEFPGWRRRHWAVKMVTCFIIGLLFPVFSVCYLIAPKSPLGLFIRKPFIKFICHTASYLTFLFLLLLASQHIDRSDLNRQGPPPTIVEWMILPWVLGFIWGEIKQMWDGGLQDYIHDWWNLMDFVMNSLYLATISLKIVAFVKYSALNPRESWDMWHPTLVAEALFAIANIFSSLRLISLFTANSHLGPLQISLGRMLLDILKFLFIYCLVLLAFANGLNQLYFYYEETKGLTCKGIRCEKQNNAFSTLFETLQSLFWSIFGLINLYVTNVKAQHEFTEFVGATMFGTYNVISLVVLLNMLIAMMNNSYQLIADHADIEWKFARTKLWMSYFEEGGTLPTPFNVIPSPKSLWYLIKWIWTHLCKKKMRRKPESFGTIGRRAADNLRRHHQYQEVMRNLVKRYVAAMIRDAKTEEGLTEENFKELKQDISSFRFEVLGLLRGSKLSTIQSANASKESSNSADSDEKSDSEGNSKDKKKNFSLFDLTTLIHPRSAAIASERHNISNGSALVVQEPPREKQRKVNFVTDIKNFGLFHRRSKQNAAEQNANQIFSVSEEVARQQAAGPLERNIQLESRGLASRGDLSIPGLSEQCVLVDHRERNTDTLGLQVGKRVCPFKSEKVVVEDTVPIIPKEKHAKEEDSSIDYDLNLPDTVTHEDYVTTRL

[1] = test system: TRPC1 or TRPC5 mutations within the TRPC1/5 heteromer; experiment: Whole-cell patch-clamp, inhibition of TRPC1/5 heteromers carrying TRPC1 or TRPC5 mutations (e.g. TRPC1 F595A); format: cell-based; conditions: TRPC1 F595A/C5 vs WT TRPC1/5
Excerpt: The full-length hTRPC5 or truncated mTRPC5, and the full-length hTRPC1 constructs was respectively co-transfected in a plasmid ration 1:3 (w/w) into HEK293T cells (from the ATCC). As previously described, a mCherry was inserted into TRPC5 constructs and a GFP was inserted at the C terminus of TRPC1. Therefore, Cells with red and green fluorescence were selected for whole-cell patch recordings (HEKA EPC10 amplifier, […] software (https://www.heka.com/downloads/downloads_main.html#down_patchmaster)). A 1-s ramp protocol from −100 to +100 mV was applied at a frequency of 0.2 Hz. Signals were sampled at 50 kHz and filtered at 2.9 kHz. The pipette solution contained 130 mM CsCl, 1 mM MgCl2, 5.7 mM CaCl2, 10 mM EGTA, and 10 mM Hepes (calculated free Ca^2+, 200 nM), and the pH was titrated to 7.2 using CsOH[40]. The standard bath solution contained 140 mM NaCl, 5 mM KCl, 1 mM MgCl2, 2 mM CaCl2, 10 mM Hepes, and 10 mM D-glucose, and the pH was adjusted to 7.4 with NaOH (1 M). The recording chamber (150 μL) was perfused at a rate of ~2 mL/min. All recordings were performed at room temperature. In this experiment, TRPC5 homomers or TRPC1/5 heteromers were activated using the TRPC1/4/5 agonist Englerin A (EA).
Error bars represent the standard error of the mean (SEM, n = 6 independent
Error bars represent the standard error of the
110 mean (SEM, n = 5 independent cells).

[2] = test system: lateral amygdala (LA) neurons; experiment: Current-clamp recordings in acute brain slices, CCK-4-induced hyperexcitability; format: cell-based, mouse; conditions: ex vivo brain slices
Method: Coronal brain slices (300 μm) were prepared from male C57BL/6 J mice (8–10 weeks, Jinan Pengyue Laboratory Animal Breeding Co., Ltd., Jinan, China) and initially incubated in ACSF-1.5 at 32 for 30 min, followed by an additional 1 h at room temperature. Subsequently, slices were transferred to oxygenated artificial cerebrospinal fluid (ACSF) containing the test compound and incubated for 2–3 h before being placed in a recording chamber perfused with ACSF-1.5.
Electrophysiological recordings were performed under an Olympus microscope equipped with a 40× long-working-distance objective. Recording electrodes (3-4 MΩ) were pulled from borosilicate glass capillaries. […] After achieving a gigaseal in voltage-clamp mode at −70 mV and establishing whole-cell configuration with series resistance compensation, recordings were switched to current-clamp mode. Step currents ranging from −60 pA to 300 pA (Δ = 20 pA, 500 ms duration, 3 s interval) were applied to evoke action potentials. […] Intracellular solution (mM): 140 K-gluconate, 2 MgCl₂, 8 KCl, 10 HEPES, 2 Na₂-ATP, 0.2 Na₂-GTP; pH adjusted to 7.2 with KOH.
(d) Quantification of action potential
Data are presented as mean ± SEM (n = 11 neurons

## CN(C)CCCCn1c(=O)c2c(nc(Oc3cccc(Cl)c3)n2Cc2ccc(Cl)cc2)n(C)c1=O [H08]
TRPC1/5
  inhibition of TRPC1/5 heteromers (in words): strong inhibition
TRPC4 homomer
  IC50: 2.38 µM
[1]
  increase in IC50 on alanine substitution of F595 in TRPC1: ~ 100 fold
[2]
  effect on CCK-4-induced hyperexcitability of lateral amygdala neurons (in words): selectively suppresses CCK-4-induced hyperexcitability
